Laboratory results published in PubChem BioAssay AID2060621 (Molecular Pharmacology Branch, DTP, NCI, 2025).
pIC50: −log10 of the molar value.

Test system: 324938-238-R-J1-PDC complex spheroids viability
Assay: Anticancer human tumor 324938-238-R-J1-PDC patient-derived bladder carcinoma cell line growth inhibition [CLK]
Conditions: for pIC50: curve of first compound; for viability, T/C: stronger effect = lower value
From the text: A high-throughput screen of multi-cell type tumor spheroids was designed to identify active combinations of […] and targeted small molecules. Complex spheroids include a stromal component modeled by human endothelial cells (HUVEC) and fibroblasts modeled by human mesenchymal stem cells (MSCs). The concentration ranges selected for each drug and investigational agent were based upon clinically achievable concentrations if the clinical Cmax of the agent was known.
Compounds. The drugs and investigational agents: cirtuvivint (SM08502; NSC835563), CC-671 (NSC850746), vemurafenib (NSC761431), tapotoclax (NSC804041), sotorasib (NSC818433), adagrasib (NSC831453), MRTX-1133 (NSC836407), BAY2416964 (NSC825713), copanlisib (NSC816437), inavolisib (NSC800729), abemaciclib (NSC768073), osimertinib (NSC779217), entinostat (NSC756642), eltanexor (KPT-8602, NSC794443), venetoclax (NSC766270), ceralasertib (NSC777638), bortezomib (NSC756655), olaparib (NSC753686), talazoparib (NSC767125), alisertib (NSC759677), peposertib (NSC802822), gemcitabine (NSC613327), 5-fluorouracil (NSC19893), SN-38 (NSC673596), oxaliplatin (NSC266046), paclitaxel (NSC125973), and doxorubicin (NSC123127), were obtained from the National Cancer Institute (NCI) Developmental Therapeutics Program Chemical Repository. The FDA-approved anticancer drug set is available from the Developmental Therapeutics Program at https://dtp.cancer.gov/organization/dscb/obtaining/available plates.htm. […] The stock solutions were prepared in dimethyl sulfoxide (DMSO, Sigma-Aldrich, St. Louis, MO, cat. D2650), except for the platinum complexes which were prepared in saline (Quality Biological, Gaithersburg, MD, cat. 114-055-101), at 800-fold the tested concentration and stored at -70 degrees C prior to their use. All drugs and investigational agents were tested over a range starting from a high concentration at or near the clinical Cmax and decreasing in half-log increments. If the clinical Cmax for an agent had not been determined, the highest concentration tested was 10 microM.
Cell Culture. All cells were maintained in an incubator at 37 degrees C and 5% CO2 with 95% humidity. The PDC lines were cultured according to standard operating procedures established by the NCI PDMR. Briefly, all PDCs were thawed and cultured in Matrigel-coated flasks prepared with a working solution of 1X Ham's F-12 nutrient mix, without supplementation (Invitrogen, Waltham, MA, cat. 11765054), 100 U/mL penicillin-streptomycin (Invitrogen, cat. 15140122), and 2.5% Matrigel (Corning Inc., Corning, NY, cat. 354248) for the first three passages. The 947758-054-R-J2-PDC line was cultured in 6B/Colon 1A media, which includes advanced DMEM/F-12 (Thermo Fisher Scientific, cat. 12634028), 10 mM HEPES (Thermo Fisher Scientific, cat. 15630080), 1X GlutaMAX supplement (Thermo Fisher Scientific, cat. 35050061), 0.1 mg/mL primocin (InvivoGen, cat. ant-pm-2), 10% defined fetal bovine serum, heat inactivated (HyClone Laboratories Inc., cat. SH30070.03HI), 1.25 mM N-Acetyl-L-cysteine (Sigma-Aldrich, cat. A9165), 10 mM nicotinamide (Sigma-Aldrich, cat. N0636), 1X B-27 supplement (Thermo Fisher Scientific, cat. 17504044), 1X N-2 supplement (Thermo Fisher Scientific, cat. 17502048), and 10 microM Y-27632 dihydrochloride (Tocris Bioscience, cat. 1254). The 876862-298-R-J1-PDC was cultured in 6E media, which includes all 6B/Colon 1A media components plus 50% L-WRN conditioned media (ATCC, cat. CRL-3276), 50 ng/mL recombinant human EGF recombinant protein (hEGF; Thermo Fisher Scientific, cat. PHG0311), 10 ng/mL recombinant human fibroblast growth factor 10 (hGFG-10; PeproTech, cat. 100-26), 1 ng/mL recombinant human fibroblast growth factor 2 (hFGF-2; PeproTech, cat. 100-18B), and 1 µM prostaglandin E2 (PGE2; Tocris, cat. 2296). The 227483-062-R1-J1-PDC line was cultured in Panc media, containing all 6E components except hFGF-2, with the addition of 500 nM SB-431542 (Selleckchem, cat. S1067) and 10 nM gastrin (Tocris, cat. 3006). […]

[1] = second compound 0.0316 µM, first compound 0.00316 µM
[2] = second compound 0.0316 µM, first compound 0.01 µM
[3] = second compound 0.0316 µM, first compound 0.0316 µM
[4] = second compound 0.0316 µM, first compound 0.1 µM
[5] = second compound 0.1 µM, first compound 0.00316 µM
[6] = second compound 0.1 µM, first compound 0.01 µM
[7] = second compound 0.1 µM, first compound 0.0316 µM
[8] = second compound 0.1 µM, first compound 0.1 µM
[9] = second compound 0.316 µM, first compound 0.00316 µM
[10] = second compound 0.316 µM, first compound 0.01 µM
[11] = second compound 0.316 µM, first compound 0.0316 µM
[12] = second compound 0.316 µM, first compound 0.1 µM
[13] = second compound 1 µM, first compound 0.00316 µM
[14] = second compound 1 µM, first compound 0.01 µM
[15] = second compound 1 µM, first compound 0.0316 µM
[16] = second compound 1 µM, first compound 0.1 µM
[17] = second compound 3.16 µM, first compound 0.00316 µM
[18] = second compound 3.16 µM, first compound 0.01 µM
[19] = second compound 3.16 µM, first compound 0.0316 µM
[20] = second compound 3.16 µM, first compound 0.1 µM
[21] = second compound 10 µM, first compound 0.00316 µM
[22] = second compound 10 µM, first compound 0.01 µM
[23] = second compound 10 µM, first compound 0.0316 µM
[24] = second compound 10 µM, first compound 0.1 µM
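Note: viability read after seven days of drug exposure.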
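Throughout, for viability, T/C: 100% = DMSO vehicle control wells.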

CCN1CCN(Cc2ccc(Nc3ncc(F)c(-c4cc(F)c5nc(C)n(C(C)C)c5c4)n3)nc2)CC1 + CN1CCN(c2cc(C(=O)Nc3cc4cc(-c5cnn(C)c5)ccc4cn3)ccn2)CC1
pIC50 (second compound 0.0316 µM): 7.19
pIC50 (second compound 0.1 µM): 8.23
pIC50 (second compound 0.316 µM): > 8.50
pIC50 (second compound 1 µM): > 8.50
pIC50 (second compound 3.16 µM): > 8.50
pIC50 (second compound 10 µM): > 8.50
viability, T/C [1]: 65%
viability, T/C [2]: 72.9%
viability, T/C [3]: 56.3%
viability, T/C [4]: 46.5%
viability, T/C (second compound 0.0316 µM, first compound 0.316 µM): 34.2%
viability, T/C (second compound 0.0316 µM, first compound 1 µM): 35.5%
viability, T/C [5]: 53%
viability, T/C [6]: 47.2%
viability, T/C [7]: 42.1%
viability, T/C [8]: 42.3%
viability, T/C (second compound 0.1 µM, first compound 0.316 µM): 34.2%
viability, T/C (second compound 0.1 µM, first compound 1 µM): 31.3%
viability, T/C [9]: 23.8%
viability, T/C [10]: 24.7%
viability, T/C [11]: 25%
viability, T/C [12]: 25.1%
viability, T/C (second compound 0.316 µM, first compound 0.316 µM): 28.2%
viability, T/C (second compound 0.316 µM, first compound 1 µM): 31.1%
viability, T/C [13]: 1.45%
viability, T/C [14]: 1.54%
viability, T/C [15]: 1.57%
viability, T/C [16]: 2.36%
viability, T/C (second compound 1 µM, first compound 0.316 µM): 1.73%
viability, T/C (second compound 1 µM, first compound 1 µM): 0.69%
viability, T/C [17]: 0.12%
viability, T/C [18]: 0.84%
viability, T/C [19]: 0.19%
viability, T/C [20]: 0.14%
viability, T/C (second compound 3.16 µM, first compound 0.316 µM): 0.32%
viability, T/C (second compound 3.16 µM, first compound 1 µM): 0.84%
viability, T/C [21]: 0.09%
viability, T/C [22]: 0.19%
viability, T/C [23]: 0.2%
viability, T/C [24]: 0.11%
viability, T/C (second compound 10 µM, first compound 0.316 µM): 0.15%
viability, T/C (second compound 10 µM, first compound 1 µM): 0.2%

Cn1ncnc1[C@H]1c2n[nH]c(=O)c3cc(F)cc(c23)N[C@@H]1c1ccc(F)cc1 + CNC(=O)c1ccc(Nc2nc(OC3CCCC3)c3c(-c4ccc5nc(C)oc5c4)c[nH]c3n2)c(OC)c1
pIC50 (second compound 0.0316 µM): 7.92
pIC50 (second compound 0.1 µM): > 9.50
pIC50 (second compound 0.316 µM): > 9.50
pIC50 (second compound 1 µM): > 9.50
pIC50 (second compound 3.16 µM): > 9.50
pIC50 (second compound 10 µM): > 9.50
viability, T/C (second compound 0.0316 µM, first compound 0.000316 µM): 83%
viability, T/C (second compound 0.0316 µM, first compound 0.001 µM): 89.5%
viability, T/C [1]: 66.3%
viability, T/C [2]: 54.8%
viability, T/C [3]: 35.1%
viability, T/C [4]: 26.6%
viability, T/C (second compound 0.1 µM, first compound 0.000316 µM): 26.2%
viability, T/C (second compound 0.1 µM, first compound 0.001 µM): 26.5%
viability, T/C [5]: 21.8%
viability, T/C [6]: 21%
viability, T/C [7]: 20.4%
viability, T/C [8]: 20.7%
viability, T/C (second compound 0.316 µM, first compound 0.000316 µM): 17.8%
viability, T/C (second compound 0.316 µM, first compound 0.001 µM): 20.8%
viability, T/C [9]: 16.7%
viability, T/C [10]: 18.7%
viability, T/C [11]: 19.8%
viability, T/C [12]: 17.4%
viability, T/C (second compound 1 µM, first compound 0.000316 µM): 16.5%
viability, T/C (second compound 1 µM, first compound 0.001 µM): 15.4%
viability, T/C [13]: 14.7%
viability, T/C [14]: 13.9%
viability, T/C [15]: 14.8%
viability, T/C [16]: 15.9%
viability, T/C (second compound 3.16 µM, first compound 0.000316 µM): 17.5%
viability, T/C (second compound 3.16 µM, first compound 0.001 µM): 19.6%
viability, T/C [17]: 15.4%
viability, T/C [18]: 17%
viability, T/C [19]: 18%
viability, T/C [20]: 15.4%
viability, T/C (second compound 10 µM, first compound 0.000316 µM): 18.2%
viability, T/C (second compound 10 µM, first compound 0.001 µM): 18.8%
viability, T/C [21]: 18.9%
viability, T/C [22]: 17.8%
viability, T/C [23]: 18.7%
viability, T/C [24]: 17.3%
